# Where a name gives a salt, the structure may show the parent alone.
# Molecular target: T1, BACE1 (Homo sapiens, UniProt P56817)
# T1 construct: endogenous in cells; host or cells: HEK293 stably transfected with human APP695 wt
# Assay: Cellular Aβ-lowering assay b): HEK293 APP Abeta 40 AlphaLISA Assay
# Type: cell-based
# Conditions: assay b): HEK293 APP cells, Aβ 40 in supernatant by AlphaLISA, 18-20 hrs incubation
# Experimental: b) HEK293 APP: Abeta 40 AlphaLISA Assay
# The cells were seeded in 96 well Microtiter plates in cell culture medium (Iscove's, plus 10% (v/v) fetal bovine serum, penicillin/streptomycin) to about 80% confluency and the compounds were added at a 3× concentration in ⅓ volume of culture medium (final DMSO concentration was kept at 1% v/v). After 18-20 hrs incubation at 37° C. and 5% CO2 in a humidified incubator, the culture supernatants were harvested for the determination of Aβ 40 concentrations using Perkin-Elmer Human Amyloid beta 1-40 (high specificity) Kit (Cat#AL275C).
# In a Perkin-Elmer White Optiplate-384 (Cat#6007290), […] culture supernatants were combined with 2 μl of a 10X AlphaLISA Anti-hAβ Acceptor beads+Biotinylated Antibody Anti-Aβ 1-40 Mix (50 μg/mL/5 nM). After 1 hour room temperature incubation, 16 μl of a 1.25× preparation of Streptavidin (SA) Donor beads (25 μg/mL) were added and incubated for 30 minutes in the Dark. Light Emission at 615 nm was then recorded using EnVision-Alpha Reader. Levels of Aβ 40 in the culture supernatants were calculated as percentage of maximum signal (cells treated with 1% DMSO without inhibitor). The IC50 values were calculated using the Excel XLfit software.
# T1 sequence (P56817 46-501): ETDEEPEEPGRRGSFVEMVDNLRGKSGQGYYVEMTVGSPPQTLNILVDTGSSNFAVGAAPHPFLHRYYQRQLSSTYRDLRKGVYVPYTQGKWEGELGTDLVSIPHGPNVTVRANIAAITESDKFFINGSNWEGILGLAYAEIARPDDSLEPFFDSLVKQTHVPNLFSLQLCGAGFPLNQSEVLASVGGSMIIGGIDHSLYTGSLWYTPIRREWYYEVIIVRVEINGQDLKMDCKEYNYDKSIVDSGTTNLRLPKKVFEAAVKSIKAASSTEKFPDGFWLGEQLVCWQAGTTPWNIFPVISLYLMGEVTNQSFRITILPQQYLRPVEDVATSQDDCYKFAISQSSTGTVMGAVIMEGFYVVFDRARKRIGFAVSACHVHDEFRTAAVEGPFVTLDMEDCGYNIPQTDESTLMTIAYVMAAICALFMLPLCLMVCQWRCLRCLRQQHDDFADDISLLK
row,SMILES,IC50 [nM]
1,"CC1(C)OCC(N)=N[C@](C)(c2cc(-c3cc(F)cc(Cl)c3)ccc2F)C1(F)F [Example 11, (R)-5-(5′-Chloro-4,3′-difluoro-biphenyl-3-yl)-6,6-difluoro-5,7,7-trimethyl-2,5,6,7-tetrahydro-[1,4]oxazepin-3-ylamine hydrochloride]",510
2,"CC(C)(C)COS(=O)(=O)c1cccc(-c2ccc(F)c([C@@]3(C)N=C(N)COC(C)(C)C3(F)F)c2)c1 [Example 12, 3′-((R)-3-Amino-6,6-difluoro-5,7,7-trimethyl-2,5,6,7-tetrahydro-[1,4]oxazepin-5-yl)-4′-fluoro-biphenyl-3-sulfonic acid 2,2-dimethyl-propyl ester]",5180
3,"CC(C)(C)NS(=O)(=O)c1cccc(-c2ccc(F)c([C@@]3(C)N=C(N)COC(C)(C)C3(F)F)c2)c1 [Example 15, 3′-((R)-3-Amino-6,6-difluoro-5,7,7-trimethyl-2,5,6,7-tetrahydro-[1,4]oxazepin-5-yl)-4′-fluoro-biphenyl-3-sulfonic acid tert-butylamide]",4000
4,"CC(C)(C)NS(=O)(=O)c1cncc(-c2ccc(F)c([C@@]3(C)N=C(N)COC(C)(C)C3(F)F)c2)c1 [Example 16, 5-[3-((R)-3-Amino-6,6-difluoro-5,7,7-trimethyl-2,5,6,7-tetrahydro-[1,4]oxazepin-5-yl)-4-fluoro-phenyl]-pyridine-3-sulfonic acid tert-butylamide]",1550
5,"CC1(C)OCC(N)=N[C@](C)(c2cc(-c3ccc(C#N)cc3)ccc2F)C1(F)F [Example 20, 3′-((R)-3-Amino-6,6-difluoro-5,7,7-trimethyl-2,5,6,7-tetrahydro-[1,4]oxazepin-5-yl)-4′-fluoro-biphenyl-4-carbonitrile]",710
6,"CC1(C)OCC(N)=N[C@](C)(c2cc(-c3nc4ccc(Cl)cc4s3)ccc2F)C1(F)F [Example 21, (R)-5-[5-(6-Chloro-benzothiazol-2-yl)-2-fluoro-phenyl]-6,6-difluoro-5,7,7-trimethyl-2,5,6,7-tetrahydro-[1,4]oxazepin-3-ylamine hydrochloride]",7430
7,"CC1(C)OCC(N)=N[C@](C)(c2cc(-c3cn(-c4ccccn4)cn3)ccc2F)C1(F)F [Example 22, (R)-6,6-Difluoro-5-[2-fluoro-5-(1-pyridin-2-yl-1H-imidazol-4-yl)-phenyl]-5,7,7-trimethyl-2,5,6,7-tetrahydro-[1,4]oxazepin-3-ylamine]",200
8,"CC1(C)OCC(N)=N[C@](C)(c2cc(-c3cn(-c4ccc(C(F)(F)F)cn4)cn3)ccc2F)C1(F)F [Example 23, (R)-6,6-Difluoro-5-{2-fluoro-5-[1-(5-trifluoromethyl-pyridin-2-yl)-1H-imidazol-4-yl]-phenyl}-5,7,7-trimethyl-2,5,6,7-tetrahydro-[1,4]oxazepin-3-ylamine]",220
9,"CC1(C)OCC(N)=N[C@](C)(c2cc(C#Cc3cccc(Cl)c3)c(F)cc2F)C1(F)F [Example 24, (R)-5-[5-(3-Chloro-phenylethynyl)-2,4-difluoro-phenyl]-6,6-difluoro-5,7,7-trimethyl-2,5,6,7-tetrahydro-[1,4]oxazepin-3-ylamine]",1270
10,"CC1(C)OCC(N)=N[C@](C)(c2cc(-c3cnn(-c4ccc(F)cc4)c3)c(F)cc2F)C1(F)F [Example 29, (R)-6,6-Difluoro-5-{2,4-difluoro-5-[1-(4-fluoro-phenyl)-1H-pyrazol-4-yl]-phenyl}-5,7,7-trimethyl-2,5,6,7-tetrahydro-[1,4]oxazepin-3-ylamine]",940
11,"COc1ncc(-c2cc([C@@]3(C)N=C(N)COC(C)(C)C3(F)F)c(F)cc2F)cn1 [Example 30, (R)-5-[2,4-Difluoro-5-(2-methoxy-pyrimidin-5-yl)-phenyl]-6,6-difluoro-5,7,7-trimethyl-2,5,6,7-tetrahydro-[1,4]oxazepin-3-ylamine formate]",75
12,"CC1(C)OCC(N)=N[C@](C)(c2cc(-c3nc4ccc(Cl)cc4o3)c(F)cc2F)C1(F)F [Example 31, (R)-5-[5-(6-Chloro-benzooxazol-2-yl)-2,4-difluoro-phenyl]-6,6-difluoro-5,7,7-trimethyl-2,5,6,7-tetrahydro-[1,4]oxazepin-3-ylamine]",180
13,"CC1(C)OCC(N)=N[C@](C)(c2cc(-c3ncc(Cl)cn3)c(F)cc2F)C1(F)F [Example 32, (R)-5-[5-(5-Chloro-pyrimidin-2-yl)-2,4-difluoro-phenyl]-6,6-difluoro-5,7,7-trimethyl-2,5,6,7-tetrahydro-[1,4]oxazepin-3-ylamine]",500
14,"CC1(C)OCC(N)=N[C@](C)(c2cc(C#Cc3ccc(C#N)cn3)ccc2F)C1(F)F [Example 33, 6-[3-((R)-3-Amino-6,6-difluoro-5,7,7-trimethyl-2,5,6,7-tetrahydro-[1,4]oxazepin-5-yl)-4-fluoro-phenylethynyl]-nicotinonitrile]",3
15,"CC1(C)OCC(N)=N[C@](C)(c2cc(C#Cc3ncc(Cl)cn3)ccc2F)C1(F)F [Example 34, (R)-5-[5-(5-Chloro-pyrimidin-2-ylethynyl)-2-fluoro-phenyl]-6,6-difluoro-5,7,7-trimethyl-2,5,6,7-tetrahydro-[1,4]oxazepin-3-ylamine]",13
16,"CC1(C)OCC(N)=N[C@](C)(c2cc(C#Cc3ccnc(Cl)c3)ccc2F)C1(F)F [Example 35, (R)-5-[5-(2-Chloro-pyridin-4-ylethynyl)-2-fluoro-phenyl]-6,6-difluoro-5,7,7-trimethyl-2,5,6,7-tetrahydro-[1,4]oxazepin-3-ylamine]",79
17,"CC1(C)OCC(N)=N[C@](C)(c2cc(C#Cc3cc(C#N)ccn3)ccc2F)C1(F)F [Example 36, 2-[3-((R)-3-Amino-6,6-difluoro-5,7,7-trimethyl-2,5,6,7-tetrahydro-[1,4]oxazepin-5-yl)-4-fluoro-phenylethynyl]-isonicotinonitrile]",115
18,"CC1(C)OCC(N)=N[C@](C)(c2cc(C#Cc3ccc(Cl)nn3)ccc2F)C1(F)F [Example 37, (R)-5-[5-(6-Chloro-pyridazin-3-ylethynyl)-2-fluoro-phenyl]-6,6-difluoro-5,7,7-trimethyl-2,5,6,7-tetrahydro-[1,4]oxazepin-3-ylamine]",145
19,"CC1(C)OCC(N)=N[C@](C)(c2cc(C#Cc3cncc(Cl)c3)ccc2F)C1(F)F [Example 38, (R)-5-[5-(5-Chloro-pyridin-3-ylethynyl)-2-fluoro-phenyl]-6,6-difluoro-5,7,7-trimethyl-2,5,6,7-tetrahydro-[1,4]oxazepin-3-ylamine]",152
20,"CC1(C)OCC(N)=N[C@](C)(c2cc(C#Cc3ccccn3)ccc2F)C1(F)F [Example 39, (R)-6,6-Difluoro-5-(2-fluoro-5-pyridin-2-ylethynyl-phenyl)-5,7,7-trimethyl-2,5,6,7-tetrahydro-[1,4]oxazepin-3-ylamine]",360
21,"COc1cnc(C#Cc2ccc(F)c([C@@]3(C)N=C(N)COC(C)(C)C3(F)F)c2)cn1 [Example 40, (R)-6,6-Difluoro-5-[2-fluoro-5-(5-methoxy-pyrazin-2-ylethynyl)-phenyl]-5,7,7-trimethyl-2,5,6,7-tetrahydro-[1,4]oxazepin-3-ylamine]",480
22,"CC1(C)OCC(N)=N[C@](C)(c2cc(-c3nc4cc(Cl)ccc4o3)c(F)cc2F)C1(F)F [Example 41, (R)-5-[5-(5-Chloro-benzooxazol-2-yl)-2,4-difluoro-phenyl]-6,6-difluoro-5,7,7-trimethyl-2,5,6,7-tetrahydro-[1,4]oxazepin-3-ylamine]",550
23,"CC1(C)OCC(N)=N[C@](C)(c2cc(-c3nc4cc(F)c(F)cc4o3)c(F)cc2F)C1(F)F [Example 42, (R)-5-[5-(5,6-Difluoro-benzooxazol-2-yl)-2,4-difluoro-phenyl]-6,6-difluoro-5,7,7-trimethyl-2,5,6,7-tetrahydro-[1,4]oxazepin-3-ylamine]",550
24,"CC1(C)OCC(N)=N[C@](C)(c2cc(-c3nc4ccc(C(F)(F)F)cc4o3)c(F)cc2F)C1(F)F [Example 43, (R)-5-[2,4-Difluoro-5-(6-trifluoromethyl-benzooxazol-2-yl)-phenyl]-6,6-difluoro-5,7,7-trimethyl-2,5,6,7-tetrahydro-[1,4]oxazepin-3-ylamine]",70
